# Measured values taken from patent US20260193219A1, “TRIAZINE DERIVATIVES FOR TREATING DISEASES RELATING TO NEUROTROPHINS” (AlzeCure Pharma AB, priority 2020, published 2026).
# Experiments:
# [1] = target: T1, TrkA (Homo sapiens, UniProt P04629); experiment: In vitro Trk receptor modulation assay (Enzyme Fragment Complementation), U2OS cells over-expressing TrkA; type: cell-based; conditions: compound pre-mixed with ligand (NGF), final 10 ng/mL, 3 hours, modulator mode
# T1 construct: expressed in transfected cells; host or cells: U2OS
# T1 sequence (P04629 33-796): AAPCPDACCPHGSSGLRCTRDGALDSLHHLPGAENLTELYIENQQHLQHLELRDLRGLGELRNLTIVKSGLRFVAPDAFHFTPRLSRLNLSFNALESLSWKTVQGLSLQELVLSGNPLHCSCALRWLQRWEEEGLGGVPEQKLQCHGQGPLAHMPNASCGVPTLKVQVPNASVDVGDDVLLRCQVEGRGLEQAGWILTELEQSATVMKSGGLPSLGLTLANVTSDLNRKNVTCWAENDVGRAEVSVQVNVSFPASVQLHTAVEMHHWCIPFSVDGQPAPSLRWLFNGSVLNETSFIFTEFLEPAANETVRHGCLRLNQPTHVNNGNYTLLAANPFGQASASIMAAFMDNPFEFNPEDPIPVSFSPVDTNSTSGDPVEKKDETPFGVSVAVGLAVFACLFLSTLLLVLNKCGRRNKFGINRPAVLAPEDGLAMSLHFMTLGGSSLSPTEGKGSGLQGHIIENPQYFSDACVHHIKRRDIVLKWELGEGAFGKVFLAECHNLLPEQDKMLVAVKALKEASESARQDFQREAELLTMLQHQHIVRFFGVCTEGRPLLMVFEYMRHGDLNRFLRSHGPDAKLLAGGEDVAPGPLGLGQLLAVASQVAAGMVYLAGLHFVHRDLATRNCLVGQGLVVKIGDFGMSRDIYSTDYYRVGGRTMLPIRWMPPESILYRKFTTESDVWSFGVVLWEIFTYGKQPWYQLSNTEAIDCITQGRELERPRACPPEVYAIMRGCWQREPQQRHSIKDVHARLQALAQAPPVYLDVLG
# Text: (§1) A high throughput cell-based screen was used to identify positive modulators of TrkA and TrkB. The screen involves the use of cell-based assay overexpressing TrkA, or TrkB. The purpose of the assay is to identify compounds that modulate neurotrophin signalling (Forsell et al 2012). The assay can be used in inhibitor mode using a high concentration of ligand, in modulator mode using an intermediate concentration and in agonist mode using a low concentration of ligand.
# (§2) The assay uses Enzyme Fragment Complementation (EFC) technique, which is a proximity-based assay. Briefly, cells used in this assay over-express two fusion proteins, i.e. the receptor, which can be one of TrkA or TrkB fused to a small peptide of beta-galactosidase and an adaptor protein, i.e. SHC1 (or any other Trk-adaptor protein) fused to the major part of beta-galactosidase. […] The proximity between the small activating peptide on the receptor and the major part of beta-galactosidase on the adaptor protein leads to an active beta-galactosidase enzyme. The activation of the receptor is quantified by measuring the amount of active beta-galactosidase by its conversion of a non-luminescent substrate into a luminescent product.
# (§3) U2OS-cells, over-expressing TrkA or TrkB, were plated in 96- or 384-well plates and incubated overnight. On the following day, test compound was pre-mixed with ligand (NGF) and the ligand-compound mixture is then added to the cells to yield a final ligand concentration of 10 ng/mL. After 3 hours of incubation at room temperature, the incubation is stopped by the addition of a beta-galactosidase substrate mixture containing detergents. The substrate mixture is incubated for 60 minutes at ambient temperature. The luminescence is thereafter read by the use of a plate reader.
# [2] = tested on: C57/Bl6 mice; experiment: Passive avoidance task in scopolamine-treated mice; type: in vivo; conditions: mice treated with scopolamine 0.3 mg/kg s.c.; compound single s.c. administration 60 min prior to training, different doses
# Protocol: The passive avoidance (PA) is an aversive learning task based on classical (Pavlovian) fear conditioning that allows for analysis of both facilitation and impairment of memory function by adjusting the unconditioned stimulus, i.e. the electrical foot shock. Commonly a cognitive-impairing agent is administered to the animals to mimic the neurochemical disturbances present in various cognitive disorders e.g. cholinergic (scopolamine) and glutamatergic (MK-801) deficits.
# Prior to testing, the animals are brought to the experimental room where they were allowed to habituate for 60 min. The test is conducted using a modified shuttle box with two communicating compartments of equal size with a small sliding door built into the separating wall and a stainless-steel bar floor. One of the compartments is not illuminated and thus black whereas the other compartment (the light one) is illuminated by an electric bulb, installed on the top of a plexiglass cover. The PA training is conducted in a single session. […] Latency to cross over into the dark compartment (training latency) is recorded. […] The latency to cross over into the dark compartment with all four feet is measured (retention latency) as well as time in bright compartment and a number of other relevant parameters (e.g. number of visits in the dark compartment). […]
# [3] = target: T2, TrkB (Homo sapiens, UniProt Q16620); experiment: In vitro Trk receptor modulation assay (Enzyme Fragment Complementation), U2OS cells over-expressing TrkB; type: cell-based; conditions: compound pre-mixed with ligand (NGF), final 10 ng/mL, 3 hours, modulator mode
# T2 construct: expressed in transfected cells; host or cells: U2OS
# T2 sequence (Q16620 32-822): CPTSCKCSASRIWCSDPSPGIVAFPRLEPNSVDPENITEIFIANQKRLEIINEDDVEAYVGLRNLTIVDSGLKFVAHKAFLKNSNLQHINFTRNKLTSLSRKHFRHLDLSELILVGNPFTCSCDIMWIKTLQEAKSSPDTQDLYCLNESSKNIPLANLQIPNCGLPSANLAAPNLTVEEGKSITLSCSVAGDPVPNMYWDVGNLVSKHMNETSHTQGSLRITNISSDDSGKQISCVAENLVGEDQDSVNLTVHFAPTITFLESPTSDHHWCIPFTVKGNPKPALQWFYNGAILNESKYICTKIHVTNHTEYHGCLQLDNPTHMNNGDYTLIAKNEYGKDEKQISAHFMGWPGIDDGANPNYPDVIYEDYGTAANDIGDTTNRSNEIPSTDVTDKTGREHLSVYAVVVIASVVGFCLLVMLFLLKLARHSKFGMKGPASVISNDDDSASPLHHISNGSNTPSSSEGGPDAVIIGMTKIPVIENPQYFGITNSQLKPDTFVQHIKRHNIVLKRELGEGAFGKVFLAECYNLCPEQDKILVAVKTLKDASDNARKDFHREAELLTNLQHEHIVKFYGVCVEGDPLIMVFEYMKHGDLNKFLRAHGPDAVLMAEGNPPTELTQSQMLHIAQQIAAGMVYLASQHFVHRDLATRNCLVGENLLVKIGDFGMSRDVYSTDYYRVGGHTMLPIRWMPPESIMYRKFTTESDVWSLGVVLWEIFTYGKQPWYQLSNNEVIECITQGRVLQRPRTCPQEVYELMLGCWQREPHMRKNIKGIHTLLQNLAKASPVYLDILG
# Text: as §1, §2, §3
# [4] = Human liver microsomal stability; type: in vitro ADME; conditions: human liver microsomes 0.5 mg/mL, 3 μM compound, NADPH, 37° C.
# Protocol: A 10 mM stock solution (in DMSO) was prepared for each compound. From the intermediate stock solution of 2 mM, a working solution of 0.5 mM was prepared by diluting the compound in Acetonitrile:water (50:50). The compound (1.8 μL of working solution) was spiked in 0.1 M potassium phosphate buffer (260.7 μL), pH 7.4 at a concentration of 3 μM (0.1% DMSO). Following this, human liver microsomes (pooled, Invitrogen, #HMMCPL) (7.5 μL; final protein conc. 0.5 mg/mL) were added. The aforementioned sample was incubated at 37° C. for 5 min. Subsequently, 30 μL of 10 mM NADPH prepared in 0.1 M potassium phosphate buffer was added (as a co-factor) to initiate the reaction. The samples were then incubated at 37° C. for 0, 20, 40, 60 and 120 min.
# At each time point (0, 20, 40, 60 and 120 min), 40 μL of the samples were withdrawn and reactions were stopped using 360 μL chilled acetonitrile or methanol containing suitable internal standard (Carbamazepine). The samples were centrifuged and the supernatants was analyzed in duplicate by LC-MS/MS. The percent compound remaining at each time point was calculated with respect to that of the 0 min sample. Control samples were run without NADPH for initial and final time point and blank samples was prepared using DMSO (without the test compound).
# For comparison, the experiment was also performed with known Trk receptor signalling modulator 1-methyl-3-[3-methyl-4-(4-trifluoromethanesulfonylphenoxy)phenyl]-1,3,5-triazinane-2,4,6-trione) (ponazuril). Ponazuril is metabolized very slowly in vivo and this prolonged exposure creates an increased risk of side effects if the compound is administered systemically. This causes significant challenges to the development of the compound as a systemic drug.
# [5] = tested on: C57/B16 mice; experiment: Forced Swim Test; type: in vivo; conditions: 1 mg/kg single s.c. administration 30 min prior to FST on day 2
# Protocol: The Forced Swim Test (FST) is a commonly used test in rodents to assess depression-like behaviour (Porsolt et al., Nature, 1977, 266, 730-732). The model measures a learned helplessness response and has shown to have predictive validity for clinical antidepressants, e.g. SSRIs.
# The mouse version consists of a vertical glass cylinder (25 cm high, 13 cm in diameter) filled with tap water up to 16 cm in height (25±0.5° C.). This means that the animal cannot escape (climb out) nor stand on its tail or hindlimbs. After a certain time the animal realize that it cannot get out and will stop struggling to get out, and instead become immobile and float.
# The animal is placed inside the cylinder and allowed two swimming sessions: a 10 min pre-test (on day 1), 24 h later (day 2) a second 6 min test is conducted. The total duration of immobility and latency to the first immobility are recorded during the second 6 min test. Immobility is defined as floating passively in an upright position in the water, with only small movements necessary to keep the head above the water surface. Animals are then gently removed from water and dried.
# Vehicle (20% DMSO in 0.1M PBS) or 1 mg/kg of the compound of Example 1 were administered to C57/B16 mice as a single s.c. administration 30 min prior to FST on day 2. As comparator, fluoxetine is commonly used a dose of 20 mg/kg. […]
Structure (SMILES),EC50 [1],"cognitive function, retention latency within the bright area (passive avoidance) [2]",EC50 [3],% of parent compound metabolized after 120 min [4],time spent immobile (Forced Swim Test) compared to vehicle control [5]
"COCc1cc(-n2c(=O)[nH]c(=O)n(-c3cccc(C)c3)c2=O)ccc1Oc1ccccc1 [Example 3, 1-[3-(methoxymethyl)-4-phenoxyphenyl]-3-(3-methylphenyl)-1,3,5-triazinane-2,4,6-trione]",330 nM,improves cognitive function,310 nM,82.0%,
"Cc1cccc(-n2c(=O)[nH]c(=O)n(-c3ccc(Oc4ccccc4)c(OCC(=O)N4CCCC4)c3)c2=O)c1 [Example 9, 1-(3-methylphenyl)-3-{3-[2-oxo-2-(pyrrolidin-1-yl)ethoxy]-4-phenoxyphenyl}-1,3,5-triazinane-2,4,6-trione]",210 nM,,150 nM,82.8%,
"Cc1cccc(-n2c(=O)[nH]c(=O)n(-c3ccc(Oc4ccccc4)c(OCC(=O)N4CCOCC4)c3)c2=O)c1 [Example 11, 1-(3-methylphenyl)-3-{3-[2-(morpholin-4-yl)-2-oxoethoxy]-4-phenoxyphenyl}-1,3,5-triazinane-2,4,6-trione]",270 nM,,180 nM,57.3%,
"Cc1cccc(-n2c(=O)[nH]c(=O)n(-c3ccc(Oc4ccccc4)c(C)c3)c2=O)c1 [Example 1, 1-(3-methyl-4-phenoxyphenyl)-3-(3-methylphenyl)-1,3,5-triazinane-2,4,6-trione]",120 nM,improves cognitive function,150 nM,26.8%,decreased time spent immobile
